Test results from ChEMBL document CHEMBL4706515, “Discovery of new [1,2,4] Triazolo[1,5-a]Pyrimidine derivatives that Kill gastric cancer cells via the mitochondria pathway” (Eur J Med Chem, 2020).
Active and inactive are the calls of the source. The calls are words filed in the database; no cut-off is given here.

Assays:
[1] = system: A549; assay: Antiproliferative activity against human A549 cells assessed as inhibition of cell growth at measured after 72 hrs by SRB assay; type: functional
[2] = system: BGC-823; assay: Antiproliferative activity against human BGC-823 cells assessed as inhibition of cell growth at measured after 72 hrs by SRB assay; type: functional
[3] = system: SGC-7901; assay: Antiproliferative activity against human SGC-7901 cells assessed as inhibition of cell growth at measured after 72 hrs by SRB assay; type: functional
[4] = system: GES1; assay: Cytotoxicity against human GES1 cells assessed as inhibition of cell growth at measured after 72 hrs by SRB assay; type: cell-based; settings: ges1, 72 h
[5] = system: MGC-803; assay: Antiproliferative activity against human MGC-803 cells assessed as inhibition of cell growth at measured after 72 hrs by SRB assay; type: functional
[6] = system: HGC-27; assay: Antiproliferative activity against human HGC-27 cells assessed as inhibition of cell growth at measured after 72 hrs by SRB assay; type: functional
[7] = system: MGC-803; assay: Antiproliferative activity against human MGC-803 cells assessed as inhibition of cell growth at 10 uM measured after 72 hrs by SRB assay relative to control; type: functional
[8] = system: MKN-45; assay: Antiproliferative activity against human MKN-45 cells assessed as inhibition of cell growth at measured after 72 hrs by SRB assay; type: functional
[9] = system: EJ; assay: Antiproliferative activity against human EJ cells assessed as inhibition of cell growth at measured after 72 hrs by SRB assay; type: functional

In the case of `Cc1cc(Nc2ccc(C(=O)/C=C/c3ccc(Br)cn3)cc2)n2nc(SCc3nc4ccccc4[nH]3)nc2n1`, the GI50 [1] is reported as “inactive”, the GI50 [2] is reported as 0.64 µM and the GI50 [3] is reported as 0.64 µM. For the same compound, the Activity [4] was “Non-Toxic”, the GI50 [5] was 0.64 µM and the GI50 [6] was 0.64 µM. For the same compound, the inhibition at 10 µM [7] was 96.8%, the GI50 [8] was 0.64 µM and the GI50 [9] was “inactive”.

`Cc1cc(Nc2ccc(C(=O)/C=C/c3cccc(Br)n3)cc2)n2nc(SCCCc3ccccc3)nc2n1` was tested, and the inhibition at 10 µM [7] was 76.7%.

For `Cc1cc(Nc2ccc(C(=O)/C=C/c3cccc(Br)n3)cc2)n2nc(SCc3ccccc3[N+](=O)[O-])nc2n1`, the inhibition at 10 µM [7] was 92.3%.

Compound `Cc1cc(Nc2cc(-c3ccccc3)[nH]n2)n2nc(SCc3nc4ccccc4[nH]3)nc2n1` has an inhibition at 10 µM [7] of 78.4%.

`Cc1cc(Nc2ccc(C(=O)/C=C/c3cccc(Br)n3)cc2)n2nc(SCc3ccc(Cl)cc3)nc2n1` showed an inhibition at 10 µM [7] of 90.2%.

`O=c1[nH]cc(F)c(=O)[nH]1` [FLUOROURACIL] was tested, and the GI50 [1] was “Active”, the GI50 [2] was “Active” and the GI50 [3] was “Active”. The Activity [4] was “Toxic”, the GI50 [5] was “Active” and the GI50 [6] was “Active”. For the same compound, the GI50 [8] was “Active” and the GI50 [9] was “Active”.

`CCc1cc(Nc2ccc(C(=O)/C=C/c3cccc(Br)n3)cc2)n2nc(SCc3ccccc3)nc2n1` was tested, and the inhibition at 10 µM [7] was 63%.

`Cc1cc(Nc2ccc(C(=O)/C=C/c3cccc(Br)n3)cc2)n2nc(SCc3ccc(F)cc3)nc2n1` showed an inhibition at 10 µM [7] of 93.3%.

`Cc1cc(Nc2ccc(C(=O)/C=C/c3cccc(Br)n3)cc2)n2ncnc2n1` was tested, and the inhibition at 10 µM [7] was 58.4%.

With `C#CCSc1nc2nc(-c3ccccc3)cc(Nc3ccc(C(=O)/C=C/c4cccc(Br)n4)cc3)n2n1` the inhibition at 10 µM [7] was 56.3%.

`O=C(/C=C/c1cccc(Br)n1)c1ccc(Nc2cc(-c3ccccc3)nc3nc(SCc4ccccc4)nn23)cc1` gave an inhibition at 10 µM [7] of 38.3%.

For `Cc1cc(Nc2ccc(C(=O)/C=C/c3cccc(Br)n3)cc2)n2nc(SCc3ccc(C(F)(F)F)cc3)nc2n1`, the inhibition at 10 µM [7] was 96.6%.

With `C#CCSc1nc2nc(C)cc(Nc3ccc(C(=O)/C=C/c4cccc(Br)n4)cc3)n2n1` the inhibition at 10 µM [7] was 94.4%.

With `Cc1cc(Nc2ccc(C(=O)/C=C/c3ccccc3)cc2)n2nc(SCc3nc4ccccc4[nH]3)nc2n1` the inhibition at 10 µM [7] was 94.5%.

For `Cc1cc(Nc2ccc(C(=O)/C=C/c3cccc(Br)n3)cc2)n2nc(SCc3ccc(Br)cc3)nc2n1`, the inhibition at 10 µM [7] was 96.3%.

For `Cc1nc2nc(SCc3ccc(Cl)cc3)nn2c(Nc2ccc(C(=O)/C=C/c3cccc(Br)n3)cc2)c1C`, the inhibition at 10 µM [7] was 72.5%.

Work on `Cc1cc(Nc2ccccc2)n2nc(SCc3nc4ccccc4[nH]3)nc2n1` yielded an inhibition at 10 µM [7] of 22.4%.

In the case of `Cc1cc(Nc2ccc(C(=O)/C=C/c3cccc(Br)n3)cc2)n2nc(SCc3ccccc3)nc2n1`, the inhibition at 10 µM [7] is reported as 90.2%.

Compound `Cc1cc(Nc2ccc(C(=O)/C=C/c3cccc(Br)n3)cc2)n2nc(SCc3ccc([N+](=O)[O-])cc3)nc2n1` has an inhibition at 10 µM [7] of 91.6%.

Compound `O=C(/C=C/c1cccc(Br)n1)c1ccc(Nc2c3c(nc4ncnn24)CCC3)cc1` has an inhibition at 10 µM [7] of 49.9%.

With `Cc1cc(Nc2ccc(N3CCN(C)CC3)cc2)n2nc(SCc3nc4ccccc4[nH]3)nc2n1` the inhibition at 10 µM [7] was 78.1%.
